{"source": "patent US20070082871A1", "about": "“Antiresorptive mutual salt of raloxifene and bisphosphonic acid” (HANMI PHARM. CO., LTD., priority 2003, published 2007)", "key": {"ovary-removed rats [1]": {"test_system": "ovary-removed rats", "experiment": "In vivo test: blood cholesterol level", "design": "species or system rats (Sprague-Dawley)", "details": "for Total blood cholesterol Conc.: oophorectomy rats, oral once a day 8 weeks; for Total blood cholesterol Relativ. Conc.: relative to OVX control = 1.00", "procedure": "(§1) In order to investigate the effects of the inventive mutual salts on BMD, bone stiffness, serum cholesterol level and calcium density, in vivo tests were carried out as follows.\n(§2) Also, 1.5% carboxymethylcellulose alone was administrated in a same manner to each of ovary-removed rats (group OVX) and normal rats (control, group Sham). After 8 weeks, a femur sample was obtained from each test groups to measure BMD, maximum load, stiffness, trabecular volume of epiphysis, bone volume of metaphysis, blood cholesterol level and blood calcium density."}, "ovary-removed rats [2]": {"test_system": "ovary-removed rats", "details": "for Bone volume Vol.: (bone volume)/(metaphysis volume) × 100; for Trabecular volume Vol.: (trabecular volume)/(epiphysis volume) × 100; for BMD / Stiffness Max. load / Stiffness Stiff.: femur; for BMD / Stiffness Max. load / Stiffness Stiff. / Blood calcium density Conc.: oophorectomy rats, oral once a day 8 weeks; for Stiffness Relativ. Stiff.: relative Max. Load value, OVX control = 1.00; for BMD Relativ. Density / Blood calcium density Relativ. Conc. / Bone volume Relativ Vol / Trabecular volume Relativ Vol: relative to OVX control = 1.00", "procedure": "as §1, §2"}, "[3]": {"details": "in words, as compared with the individual raloxifene hydrochloride or alendronate"}}, "note": "Read-outs that look alike come from different tables or passages of the source."}
{"molecule": "Cl.O=C(c1ccc(OCCN2CCCCC2)cc1)c1c(-c2ccc(O)cc2)sc2cc(O)ccc12", "note": "[Raloxifene hydrochloride, 6-hydroxy-2-(4-hydroxyphenyl)benzo[b]thien-3-yl 4-[2-(1-piperidinyl)ethoxy]phenyl methanone hydrochloride]", "values": [{"measurement": "Total blood cholesterol Conc.", "setting": "ovary-removed rats [1]; 1.9 mg/kg (T2)", "result": "41.40 ± 9.71", "unit": "mg/dL"}, {"measurement": "Total blood cholesterol Conc.", "setting": "ovary-removed rats [1]; 5.6 mg/kg (T3)", "result": "40.83 ± 14.2", "unit": "mg/dL"}, {"measurement": "Total blood cholesterol Relativ. Conc.", "setting": "ovary-removed rats [1]; 1.9 mg/kg (T2)", "result": 0.39}, {"measurement": "Total blood cholesterol Relativ. Conc.", "setting": "ovary-removed rats [1]; 5.6 mg/kg (T3)", "result": 0.39}, {"measurement": "Bone volume Vol.", "setting": "ovary-removed rats [2]; 1.9 mg/kg (T2)", "result": "75.96 ± 17.61", "unit": "%"}, {"measurement": "Bone volume Vol.", "setting": "ovary-removed rats [2]; 5.6 mg/kg (T3)", "result": "65.56 ± 15.33", "unit": "%"}, {"measurement": "Trabecular volume Vol.", "setting": "ovary-removed rats [2]; 1.9 mg/kg (T2)", "result": "11.25 ± 2.57", "unit": "%"}, {"measurement": "Trabecular volume Vol.", "setting": "ovary-removed rats [2]; 5.6 mg/kg (T3)", "result": "15.15 ± 4.08", "unit": "%"}, {"measurement": "BMD", "setting": "ovary-removed rats [2]; 1.9 mg/kg (T2)", "result": "91.09 ± 6.98", "unit": "mg/cm^2"}, {"measurement": "Stiffness Max. load", "setting": "ovary-removed rats [2]; 1.9 mg/kg (T2)", "result": "30.00 ± 3.24", "unit": "N"}, {"measurement": "Stiffness Stiff.", "setting": "ovary-removed rats [2]; 1.9 mg/kg (T2)", "result": "33.07 ± 9.55", "unit": "N/mm"}, {"measurement": "BMD", "setting": "ovary-removed rats [2]; 5.6 mg/kg (T3)", "result": "93.76 ± 6.22", "unit": "mg/cm^2"}, {"measurement": "Stiffness Max. load", "setting": "ovary-removed rats [2]; 5.6 mg/kg (T3)", "result": "32.09 ± 4.37", "unit": "N"}, {"measurement": "Stiffness Stiff.", "setting": "ovary-removed rats [2]; 5.6 mg/kg (T3)", "result": "38.64 ± 15.2", "unit": "N/mm"}, {"measurement": "Blood calcium density Conc.", "setting": "ovary-removed rats [2]; 1.9 mg/kg (T2)", "result": "9.20 ± 0.33", "unit": "mg/dL"}, {"measurement": "Blood calcium density Conc.", "setting": "ovary-removed rats [2]; 5.6 mg/kg (T3)", "result": "9.42 ± 0.23", "unit": "mg/dL"}, {"measurement": "Stiffness Relativ. Stiff.", "setting": "ovary-removed rats [2]; 1.9 mg/kg (T2)", "result": 1.37}, {"measurement": "Stiffness Relativ. Stiff.", "setting": "ovary-removed rats [2]; 5.6 mg/kg (T3)", "result": 1.46}, {"measurement": "BMD Relativ. Density", "setting": "ovary-removed rats [2]; 1.9 mg/kg (T2)", "result": 1.17}, {"measurement": "Blood calcium density Relativ. Conc.", "setting": "ovary-removed rats [2]; 1.9 mg/kg (T2)", "result": 0.98}, {"measurement": "Bone volume Relativ Vol", "setting": "ovary-removed rats [2]; 1.9 mg/kg (T2)", "result": 2.64}, {"measurement": "Trabecular volume Relativ Vol", "setting": "ovary-removed rats [2]; 1.9 mg/kg (T2)", "result": 0.97}, {"measurement": "BMD Relativ. Density", "setting": "ovary-removed rats [2]; 5.6 mg/kg (T3)", "result": 1.20}, {"measurement": "Blood calcium density Relativ. Conc.", "setting": "ovary-removed rats [2]; 5.6 mg/kg (T3)", "result": 1.00}, {"measurement": "Bone volume Relativ Vol", "setting": "ovary-removed rats [2]; 5.6 mg/kg (T3)", "result": 2.28}, {"measurement": "Trabecular volume Relativ Vol", "setting": "ovary-removed rats [2]; 5.6 mg/kg (T3)", "result": 1.31}]}
{"molecule": "NCCCC(O)(P(=O)(O)O)P(=O)(O)O", "note": "[Alendronate, sodium alendronate trihydrate]", "values": [{"measurement": "Total blood cholesterol Conc.", "setting": "ovary-removed rats [1]; 1.0 mg/kg (T1)", "result": "98.387 ± 17.23", "unit": "mg/dL"}, {"measurement": "Total blood cholesterol Relativ. Conc.", "setting": "ovary-removed rats [1]; 1.0 mg/kg (T1)", "result": 0.93}, {"measurement": "Bone volume Vol.", "setting": "ovary-removed rats [2]; 1.0 mg/kg (T1)", "result": "56.46 ± 17.93", "unit": "%"}, {"measurement": "Trabecular volume Vol.", "setting": "ovary-removed rats [2]; 1.0 mg/kg (T1)", "result": "20.27 ± 7.76", "unit": "%"}, {"measurement": "BMD", "setting": "ovary-removed rats [2]; 1.0 mg/kg (T1)", "result": "92.57 ± 5.64", "unit": "mg/cm^2"}, {"measurement": "Stiffness Max. load", "setting": "ovary-removed rats [2]; 1.0 mg/kg (T1)", "result": "19.22 ± 2.14", "unit": "N"}, {"measurement": "Stiffness Stiff.", "setting": "ovary-removed rats [2]; 1.0 mg/kg (T1)", "result": "19.02 ± 3.86", "unit": "N/mm"}, {"measurement": "Stiffness Relativ. Stiff.", "setting": "ovary-removed rats [2]; 1.0 mg/kg (T1)", "result": 0.88}, {"measurement": "Trabecular volume Relativ Vol", "setting": "ovary-removed rats [2]; 1.0 mg/kg (T1)", "result": 1.75}]}
{"molecule": "raloxifene alendronate pentahydrate", "values": [{"measurement": "blood cholesterol level", "setting": "ovary-removed rats [1]; [3]", "result": "effectively controls"}, {"measurement": "Total blood cholesterol Conc.", "setting": "ovary-removed rats [1]; 2.9 mg/kg (T4)", "result": "66.86 ± 9.68", "unit": "mg/dL"}, {"measurement": "Total blood cholesterol Relativ. Conc.", "setting": "ovary-removed rats [1]; 2.9 mg/kg (T4)", "result": 0.64}, {"measurement": "Bone volume Vol.", "setting": "ovary-removed rats [2]; 2.9 mg/kg (T4)", "result": "68.00 ± 9.00", "unit": "%"}, {"measurement": "Trabecular volume Vol.", "setting": "ovary-removed rats [2]; 2.9 mg/kg (T4)", "result": "17.81 ± 2.49", "unit": "%"}, {"measurement": "BMD", "setting": "ovary-removed rats [2]; 2.9 mg/kg (T4)", "result": "99.28 ± 6.25", "unit": "mg/cm^2"}, {"measurement": "Stiffness Max. load", "setting": "ovary-removed rats [2]; 2.9 mg/kg (T4)", "result": "26.50 ± 0.73", "unit": "N"}, {"measurement": "Stiffness Stiff.", "setting": "ovary-removed rats [2]; 2.9 mg/kg (T4)", "result": "35.34 ± 11.3", "unit": "N/mm"}, {"measurement": "BMD, bone stiffness, trabecular volume and bone volume", "setting": "ovary-removed rats [2]; [3]", "result": "markedly enhances"}, {"measurement": "blood calcium level", "setting": "ovary-removed rats [2]; [3]", "result": "effectively controls"}, {"measurement": "Blood calcium density Conc.", "setting": "ovary-removed rats [2]; 2.9 mg/kg (T4)", "result": "6.69 ± 0.94", "unit": "mg/dL"}, {"measurement": "Stiffness Relativ. Stiff.", "setting": "ovary-removed rats [2]; 2.9 mg/kg (T4)", "result": 1.21}, {"measurement": "BMD Relativ. Density", "setting": "ovary-removed rats [2]; 2.9 mg/kg (T4)", "result": 1.27}, {"measurement": "Blood calcium density Relativ. Conc.", "setting": "ovary-removed rats [2]; 2.9 mg/kg (T4)", "result": 0.71}, {"measurement": "Bone volume Relativ Vol", "setting": "ovary-removed rats [2]; 2.9 mg/kg (T4)", "result": 2.37}, {"measurement": "Trabecular volume Relativ Vol", "setting": "ovary-removed rats [2]; 2.9 mg/kg (T4)", "result": 1.54}]}
